{"source": "patent US6974574B2", "about": "“Methods of inducing an HIV specific response using a Vpr-specific epitope” (The General Hospital Corporation, priority 2001, dated 2005)", "key": {"[1]": {"system": "PBMC (CD8+ T cells) of HIV-1 infected individuals", "assay": "IFN-γ Elispot assay with PBMC and synthetic HIV-1 peptides", "format": "cell-based, human", "procedure": "Peptides were added directly to the wells at a final concentration of 1×10^−5 molar. Cells were added to the wells at 50,000 to 100,000 cells per well. The plates were incubated at 37° C., 5% CO2 overnight (14-16 h) and then processed as described. IFN-γ producing cells were counted by direct visualization and are expressed as spot forming cells (SFC) per 10^6 cells. The number of specific IFN-γ secreting T-cells was calculated by subtracting the negative control value from the established SFC count. […] Responses ≧40 SFC per 10^6 input cells above background were considered positive. The positive control consisted of incubation of 100,000 PBMC with phytohaemagglutinin (PHA). […] Fine mapping of epitopes by Elispot assay was performed, using peptide truncations (e.g., as described in Altfield et al., 2000, J. Virol. 74:8541). 100,000 PBMC per well were incubated with concentrations from 10^−4 M to 10^−11 M of peptide overnight on the Elispot plate. All assays were run in duplicate. The optimal peptide was defined as the peptide that induced 50% maximal specific IFN-γ production of T-cells at the lowest peptide concentration."}, "HIV": {"system": "HIV", "assay": "Level of CTL immune response elicited by peptide immunogen"}, "CD8+ T cells": {"system": "CD8+ T cells", "assay": "Flow cytometric detection of antigen-induced intracellular IFN-γ", "format": "cell-based, human", "conditions": "subject AC-06", "procedure": "CD8+ T cells were non-specifically expanded from PBMC over 10 days, using a bi-specific […]. Peptide-specific CD8+ T cell lines were subsequently isolated using a standard IFN-γ catching assay. After expansion 10-20×10^6 CD8+ T cells were incubated on 24-well-plates with 20 μM peptide and 1 ug/ml each of the mAbs anti-CD28 and anti-CD49d (Becton Dickinson) at 37° C., 5% CO2, for 6-8 hour. Cell were subsequently labeled with a bi-specific CD45/IFN-γ catching antibody and incubated for 45 min at 37° C., 5% CO2. After several washes, the IFN-γ producing cells were stained with a second IFN-γ-PE detection antibody and separated by anti-PE mAb labeled with magnetic beads (MACS, Miltenyi Biotech, Hamburg, Germany). The isolated cells were then expanded for 10 days using autologous irradiated feeders.\nIntracellular cytokine staining assays were performed using known methods, e.g.,described by Pitcher et al., 1999, Nature Medicine 5:518 or Goulder et al, 2000, J. Exp. Med. 192:1819). […] Cells were then washed and analyzed on a FACSort Flowcytometer (Becton Dickinson Immunocytometry systems, San Jose, Calif.) using peridinin chlorophyl protein (PerCP), allophycocyanin (APC) and fluorescein isothiocyanate (FITC) as fluorescent parameters. […]"}}, "note": "Several values for one entry are separate records, joined by “and”; a condition that tells them apart may be missing. Equal values may be shown once."}
{"substance": "THPRVSSEVHIPLG (Human immunodeficiency virus type 1) [vif-10]", "values": [{"measurement": "Magnitude of peptide-specific CD8+ T cell responses against Vif overlapping peptides, IFN-γ ELISPOT", "setting": "[1]; individual 6003", "value": 0, "unit": "SFC/10^6 PMBC"}, {"measurement": "Magnitude of peptide-specific CD8+ T cell responses against Vif overlapping peptides, IFN-γ ELISPOT", "setting": "[1]; individual 6007", "value": 0, "unit": "SFC/10^6 PMBC"}, {"measurement": "Magnitude of peptide-specific CD8+ T cell responses against Vif overlapping peptides, IFN-γ ELISPOT", "setting": "[1]; individual 6009", "value": 40, "unit": "SFC/10^6 PMBC"}, {"measurement": "Magnitude of peptide-specific CD8+ T cell responses against Vif overlapping peptides, IFN-γ ELISPOT", "setting": "[1]; individual AC-01", "value": 0, "unit": "SFC/10^6 PMBC"}, {"measurement": "Magnitude of peptide-specific CD8+ T cell responses against Vif overlapping peptides, IFN-γ ELISPOT", "setting": "[1]; individual AC-04", "value": 0, "unit": "SFC/10^6 PMBC"}, {"measurement": "Magnitude of peptide-specific CD8+ T cell responses against Vif overlapping peptides, IFN-γ ELISPOT", "setting": "[1]; individual AC-06", "value": 11800, "unit": "SFC/10^6 PMBC"}, {"measurement": "magnitude of CTL response by Elispot", "setting": "[1]; individual AC-06, text", "value": 1180, "unit": "SFC/10^6 PBMC"}, {"measurement": "Magnitude of peptide-specific CD8+ T cell responses against Vif overlapping peptides, IFN-γ ELISPOT", "setting": "[1]; individual AC-07", "value": 0, "unit": "SFC/10^6 PMBC"}, {"measurement": "Magnitude of peptide-specific CD8+ T cell responses against Vif overlapping peptides, IFN-γ ELISPOT", "setting": "[1]; individual AC-13", "value": 0, "unit": "SFC/10^6 PMBC"}, {"measurement": "Magnitude of peptide-specific CD8+ T cell responses against Vif overlapping peptides, IFN-γ ELISPOT", "setting": "[1]; individual AC-27", "value": 0, "unit": "SFC/10^6 PMBC"}, {"measurement": "Magnitude of peptide-specific CD8+ T cell responses against Vif overlapping peptides, IFN-γ ELISPOT", "setting": "[1]; individual AC-31", "value": 0, "unit": "SFC/10^6 PMBC"}, {"measurement": "Magnitude of peptide-specific CD8+ T cell responses against Vif overlapping peptides, IFN-γ ELISPOT", "setting": "[1]; individual AC-36", "value": 0, "unit": "SFC/10^6 PMBC"}, {"measurement": "Magnitude of peptide-specific CD8+ T cell responses against Vif overlapping peptides, IFN-γ ELISPOT", "setting": "[1]; individual AC-42", "value": 0, "unit": "SFC/10^6 PMBC"}, {"measurement": "Magnitude of peptide-specific CD8+ T cell responses against Vif overlapping peptides, IFN-γ ELISPOT", "setting": "[1]; individual AC-43", "value": 0, "unit": "SFC/10^6 PMBC"}, {"measurement": "Magnitude of peptide-specific CD8+ T cell responses against Vif overlapping peptides, IFN-γ ELISPOT", "setting": "[1]; individual AC-46", "value": 0, "unit": "SFC/10^6 PMBC"}, {"measurement": "Magnitude of peptide-specific CD8+ T cell responses against Vif overlapping peptides, IFN-γ ELISPOT", "setting": "[1]; individual AC-59", "value": 840, "unit": "SFC/10^6 PMBC"}, {"measurement": "Magnitude of peptide-specific CD8+ T cell responses against Vif overlapping peptides, IFN-γ ELISPOT", "setting": "[1]; individual AC-TZA", "value": 0, "unit": "SFC/10^6 PMBC"}, {"measurement": "Magnitude of peptide-specific CD8+ T cell responses against Vif overlapping peptides, IFN-γ ELISPOT", "setting": "[1]; individual CMW", "value": 0, "unit": "SFC/10^6 PMBC"}, {"measurement": "Magnitude of peptide-specific CD8+ T cell responses against Vif overlapping peptides, IFN-γ ELISPOT", "setting": "[1]; individual JMV", "value": 0, "unit": "SFC/10^6 PMBC"}, {"measurement": "Magnitude of peptide-specific CD8+ T cell responses against Vif overlapping peptides, IFN-γ ELISPOT", "setting": "[1]; individual JRH", "value": 0, "unit": "SFC/10^6 PMBC"}, {"measurement": "Magnitude of peptide-specific CD8+ T cell responses against Vif overlapping peptides, IFN-γ ELISPOT", "setting": "[1]; individual TMH#4", "value": 0, "unit": "SFC/10^6 PMBC"}]}
{"substance": "HPRVSSEVHI (Human immunodeficiency virus type 1)", "values": [{"measurement": "recognition (individuals with the corresponding HLA class I alleles that responded to the epitope)", "setting": "[1]", "value": "3/8"}]}
{"substance": "FPRIWLHGL (Human immunodeficiency virus type 1)", "values": [{"measurement": "recognition (individuals with the corresponding HLA class I alleles that responded to the epitope)", "setting": "[1]", "value": "2/2 and 4/8"}, {"measurement": "individuals expressing the HLA allele that targeted the epitope", "setting": "[1]; AL9: HLA-A2, FL9: HLA-B7", "value": "4/8"}]}
{"substance": "ISKKAKGWF (Human immunodeficiency virus type 1)", "values": [{"measurement": "recognition (individuals with the corresponding HLA class I alleles that responded to the epitope)", "setting": "[1]", "value": "2/6"}]}
{"substance": "RIRTWKSLVK (Human immunodeficiency virus type 1)", "values": [{"measurement": "recognition (individuals with the corresponding HLA class I alleles that responded to the epitope)", "setting": "[1]", "value": "3/15"}]}
{"substance": "AVRHFPRIW", "values": [{"measurement": "recognition (individuals with the corresponding HLA class I alleles that responded to the epitope)", "setting": "[1]", "value": "4/6"}]}
{"substance": "vif-3: overlapping peptide (12-18mer) spanning the HIV-1 SF2 B clade Vif sequence (RIRTWKSLVK; Human immunodeficiency virus type 1)", "values": [{"measurement": "Magnitude of peptide-specific CD8+ T cell responses against Vif overlapping peptides, IFN-γ ELISPOT", "setting": "[1]; individual 6003", "value": 0, "unit": "SFC/10^6 PMBC"}, {"measurement": "Magnitude of peptide-specific CD8+ T cell responses against Vif overlapping peptides, IFN-γ ELISPOT", "setting": "[1]; individual 6007", "value": 0, "unit": "SFC/10^6 PMBC"}, {"measurement": "Magnitude of peptide-specific CD8+ T cell responses against Vif overlapping peptides, IFN-γ ELISPOT", "setting": "[1]; individual 6009", "value": 290, "unit": "SFC/10^6 PMBC"}, {"measurement": "Magnitude of peptide-specific CD8+ T cell responses against Vif overlapping peptides, IFN-γ ELISPOT", "setting": "[1]; individual AC-01", "value": 0, "unit": "SFC/10^6 PMBC"}, {"measurement": "Magnitude of peptide-specific CD8+ T cell responses against Vif overlapping peptides, IFN-γ ELISPOT", "setting": "[1]; individual AC-04", "value": 0, "unit": "SFC/10^6 PMBC"}, {"measurement": "Magnitude of peptide-specific CD8+ T cell responses against Vif overlapping peptides, IFN-γ ELISPOT", "setting": "[1]; individual AC-06", "value": 680, "unit": "SFC/10^6 PMBC"}, {"measurement": "Magnitude of peptide-specific CD8+ T cell responses against Vif overlapping peptides, IFN-γ ELISPOT", "setting": "[1]; individual AC-07", "value": 0, "unit": "SFC/10^6 PMBC"}, {"measurement": "Magnitude of peptide-specific CD8+ T cell responses against Vif overlapping peptides, IFN-γ ELISPOT", "setting": "[1]; individual AC-13", "value": 0, "unit": "SFC/10^6 PMBC"}, {"measurement": "Magnitude of peptide-specific CD8+ T cell responses against Vif overlapping peptides, IFN-γ ELISPOT", "setting": "[1]; individual AC-27", "value": 0, "unit": "SFC/10^6 PMBC"}, {"measurement": "Magnitude of peptide-specific CD8+ T cell responses against Vif overlapping peptides, IFN-γ ELISPOT", "setting": "[1]; individual AC-31", "value": 0, "unit": "SFC/10^6 PMBC"}, {"measurement": "Magnitude of peptide-specific CD8+ T cell responses against Vif overlapping peptides, IFN-γ ELISPOT", "setting": "[1]; individual AC-36", "value": 0, "unit": "SFC/10^6 PMBC"}, {"measurement": "Magnitude of peptide-specific CD8+ T cell responses against Vif overlapping peptides, IFN-γ ELISPOT", "setting": "[1]; individual AC-42", "value": 0, "unit": "SFC/10^6 PMBC"}, {"measurement": "Magnitude of peptide-specific CD8+ T cell responses against Vif overlapping peptides, IFN-γ ELISPOT", "setting": "[1]; individual AC-43", "value": 0, "unit": "SFC/10^6 PMBC"}, {"measurement": "Magnitude of peptide-specific CD8+ T cell responses against Vif overlapping peptides, IFN-γ ELISPOT", "setting": "[1]; individual AC-46", "value": 0, "unit": "SFC/10^6 PMBC"}, {"measurement": "Magnitude of peptide-specific CD8+ T cell responses against Vif overlapping peptides, IFN-γ ELISPOT", "setting": "[1]; individual AC-59", "value": 0, "unit": "SFC/10^6 PMBC"}, {"measurement": "Magnitude of peptide-specific CD8+ T cell responses against Vif overlapping peptides, IFN-γ ELISPOT", "setting": "[1]; individual AC-TZA", "value": 0, "unit": "SFC/10^6 PMBC"}, {"measurement": "Magnitude of peptide-specific CD8+ T cell responses against Vif overlapping peptides, IFN-γ ELISPOT", "setting": "[1]; individual CMW", "value": 0, "unit": "SFC/10^6 PMBC"}, {"measurement": "Magnitude of peptide-specific CD8+ T cell responses against Vif overlapping peptides, IFN-γ ELISPOT", "setting": "[1]; individual JMV", "value": 0, "unit": "SFC/10^6 PMBC"}, {"measurement": "Magnitude of peptide-specific CD8+ T cell responses against Vif overlapping peptides, IFN-γ ELISPOT", "setting": "[1]; individual JRH", "value": 430, "unit": "SFC/10^6 PMBC"}, {"measurement": "Magnitude of peptide-specific CD8+ T cell responses against Vif overlapping peptides, IFN-γ ELISPOT", "setting": "[1]; individual TMH#4", "value": 0, "unit": "SFC/10^6 PMBC"}]}
{"substance": "LADQLIHLHY (Human immunodeficiency virus type 1)", "values": [{"measurement": "recognition (individuals with the corresponding HLA class I alleles that responded to the epitope)", "setting": "[1]", "value": "2/5"}]}
{"substance": "ALIRILQQL (Human immunodeficiency virus type 1)", "values": [{"measurement": "recognition (individuals with the corresponding HLA class I alleles that responded to the epitope)", "setting": "[1]", "value": "8/24"}, {"measurement": "level of the immune response elicited, compared with SEQ ID NO:1", "setting": "HIV", "value": "at least 1 log"}]}
{"substance": "GPGHKARVL (Human immunodeficiency virus type 1)", "values": [{"measurement": "contribution to total HIV-1-specific CD8 responses", "setting": "CD8+ T cells", "value": 32, "unit": "%"}, {"measurement": "percentage of CD8+ T cells specific for the epitope, intracellular IFN-γ", "setting": "CD8+ T cells", "value": 5.6, "unit": "%"}]}
{"substance": "REPHNEWTL (Human immunodeficiency virus type 1)", "values": [{"measurement": "recognition (individuals with the corresponding HLA class I alleles that responded to the epitope)", "setting": "[1]", "value": "1/1"}]}
